Data taken from ChEMBL document CHEMBL3751769, “Design, synthesis, and evaluation of semi-conservative mono-carbonyl analogs of curcumin as anti-inflammatory agents against lipopolysaccharide-induced acute lung injury” (Medchemcomm, 2015).
The source made the active and inactive calls. The calls are words filed in the database; no cut-off is given here.

System: RAW264.7
Assay: Anti-inflammatory activity in mouse RAW264.7 cells assessed as inhibition of IL-6 production at 10 uM preincubated for 30 mins followed by 0.5 ug/ml LPS addition after 24 hrs by ELISA
Format: functional
Details: not given
In the case of `COc1ccc(/C=C2\CCC/C(=C\c3ccc(O)c(OC)c3)C2=O)cc1O`, the “inhibition (INH)” value is reported as over 50%. For `COc1cc(/C=C2\CC/C(=C\c3ccc4ccccc4c3)C2=O)ccc1O`, the inhibition was “Active”. With `COc1cc(/C=C2\CCC/C(=C\c3ccc(F)c(Br)c3)C2=O)ccc1O` the inhibition was “Active”. With `COc1cc(/C=C2\CCC/C(=C\c3cc(Br)c(O)c(Br)c3)C2=O)ccc1O` the inhibition was “Active”. For `COc1cc(/C=C2\CCC/C(=C\c3ccccc3Br)C2=O)ccc1O`, the inhibition was “Active”. For `COc1cc(/C=C2\CCC/C(=C\c3ccc(O)cc3)C2=O)ccc1O`, the inhibition was “Active”. For `COc1cc(/C=C2\CCC/C(=C\c3cccc(OC)c3OC)C2=O)ccc1O`, the inhibition was “Active”. For `COc1cc(/C=C2\CCC/C(=C\c3ccc(Cl)c(Cl)c3)C2=O)ccc1O`, the inhibition was “Active”. With `COc1cc(/C=C2\CCC/C(=C\c3ccc(OC)c(OC)c3)C2=O)ccc1O` the inhibition was “Active”.

System: RAW264.7
Assay: Anti-inflammatory activity in mouse RAW264.7 cells assessed as inhibition of IL-6 production preincubated for 30 mins followed by 0.5 ug/ml LPS addition after 24 hrs by ELISA
Format: functional, cell-based
Details: not given
In the case of `COc1ccc(/C=C2\CCC/C(=C\c3ccc(O)c(OC)c3)C2=O)cc1O`, the inhibition is reported as “Dose-dependent effect”.

System: RAW264.7
Assay: Anti-inflammatory activity in mouse RAW264.7 cells assessed as inhibition of TNFalpha production at 10 uM preincubated for 30 mins followed by 0.5 ug/ml LPS addition after 24 hrs by ELISA
Format: functional
Details: not given
For `COc1ccc(/C=C2\CCC/C(=C\c3ccc(O)c(OC)c3)C2=O)cc1O`, the “inhibition (INH)” value was over 50%. For `COc1cc(/C=C2\CC/C(=C\c3ccc4ccccc4c3)C2=O)ccc1O`, the inhibition was “Active”. With `COc1cc(/C=C2\CCC/C(=C\c3ccc(F)c(Br)c3)C2=O)ccc1O` the inhibition was “Active”. For `COc1cc(/C=C2\CCC/C(=C\c3cc(Br)c(O)c(Br)c3)C2=O)ccc1O`, the inhibition was “Active”. With `COc1cc(/C=C2\CCC/C(=C\c3ccccc3Br)C2=O)ccc1O` the inhibition was “Active”. In the case of `COc1cc(/C=C2\CCC/C(=C\c3ccc(O)cc3)C2=O)ccc1O`, the inhibition is reported as “Active”. In the case of `COc1cc(/C=C2\CCC/C(=C\c3cccc(OC)c3OC)C2=O)ccc1O`, the inhibition is reported as “Active”. In the case of `COc1cc(/C=C2\CCC/C(=C\c3ccc(Cl)c(Cl)c3)C2=O)ccc1O`, the inhibition is reported as “Active”. For `COc1cc(/C=C2\CCC/C(=C\c3ccc(OC)c(OC)c3)C2=O)ccc1O`, the inhibition was “Active”.

System: RAW264.7
Assay: Anti-inflammatory activity in mouse RAW264.7 cells assessed as inhibition of TNFalpha production preincubated for 30 mins followed by 0.5 ug/ml LPS addition after 24 hrs by ELISA
Format: functional, cell-based
Details: not given
For `COc1ccc(/C=C2\CCC/C(=C\c3ccc(O)c(OC)c3)C2=O)cc1O`, the inhibition was “Dose-dependent effect”.

System: not listed separately
Assay: Cytotoxicity against human HL-7702 cells assessed as cell viability at 10 uM after 24 hrs by MTT assay
Format: cell-based
Details: l02, 24 h
In the case of `COc1ccc(/C=C2\CCC/C(=C\c3ccc(O)c(OC)c3)C2=O)cc1O`, the Activity is reported as “Non-toxic”. With `COc1cc(/C=C2\CC/C(=C\c3ccc4ccccc4c3)C2=O)ccc1O` the Activity was “Non-toxic”. With `COc1cc(/C=C2\CCC/C(=C\c3ccc(F)c(Br)c3)C2=O)ccc1O` the Activity was “Non-toxic”. In the case of `COc1cc(/C=C2\CCC/C(=C\c3cc(Br)c(O)c(Br)c3)C2=O)ccc1O`, the Activity is reported as “Non-toxic”. With `COc1cc(/C=C2\CCC/C(=C\c3ccccc3Br)C2=O)ccc1O` the Activity was “Non-toxic”. With `COc1cc(/C=C2\CCC/C(=C\c3ccc(O)cc3)C2=O)ccc1O` the Activity was “Non-toxic”. In the case of `COc1cc(/C=C2\CCC/C(=C\c3cccc(OC)c3OC)C2=O)ccc1O`, the Activity is reported as “Non-toxic”. In the case of `COc1cc(/C=C2\CCC/C(=C\c3ccc(Cl)c(Cl)c3)C2=O)ccc1O`, the Activity is reported as “Non-toxic”. For `COc1cc(/C=C2\CCC/C(=C\c3ccc(OC)c(OC)c3)C2=O)ccc1O`, the Activity was “Non-toxic”.
